According to publication PMC3534858 (Bioorganic & medicinal chemistry letters, 2012):

Experiments:
mouse TP receptor = target: T1, mouse TP receptor (Mus musculus, UniProt P30987); assay: Suppression of signaling through mouse TP receptor; assay type: cell-based
T1 sequence (P30987 1-341): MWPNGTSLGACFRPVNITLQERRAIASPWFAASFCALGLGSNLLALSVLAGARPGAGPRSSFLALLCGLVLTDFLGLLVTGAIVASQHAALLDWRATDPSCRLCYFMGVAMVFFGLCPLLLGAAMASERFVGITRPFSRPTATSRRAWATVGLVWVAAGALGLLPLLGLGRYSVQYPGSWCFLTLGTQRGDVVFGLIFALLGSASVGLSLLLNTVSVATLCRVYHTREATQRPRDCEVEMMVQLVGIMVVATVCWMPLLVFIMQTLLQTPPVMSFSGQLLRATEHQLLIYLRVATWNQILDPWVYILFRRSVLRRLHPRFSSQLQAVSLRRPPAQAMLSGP

mouse EP1 receptor = target: T2, mouse EP1 receptor (Mus musculus, UniProt P35375); conditions: for Schild regression slope m: representative experiment, six antagonist concentrations, agonist 17PTPGE2
T2 sequence (P35375 1-405): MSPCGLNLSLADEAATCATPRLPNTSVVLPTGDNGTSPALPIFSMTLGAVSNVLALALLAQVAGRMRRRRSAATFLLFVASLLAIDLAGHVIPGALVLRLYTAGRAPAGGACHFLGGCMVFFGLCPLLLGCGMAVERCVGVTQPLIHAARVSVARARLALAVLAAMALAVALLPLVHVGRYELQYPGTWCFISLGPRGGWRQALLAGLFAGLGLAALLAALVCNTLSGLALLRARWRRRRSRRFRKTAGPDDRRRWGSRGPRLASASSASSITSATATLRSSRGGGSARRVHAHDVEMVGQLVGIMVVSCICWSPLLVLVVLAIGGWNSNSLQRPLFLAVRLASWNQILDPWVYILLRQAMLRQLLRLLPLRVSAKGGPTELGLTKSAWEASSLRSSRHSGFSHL

[1] = Metabolite identification in hepatic subcellular fractions; assay type: in vitro ADME; conditions: NADPH-independent hydrolysis and NADPH-dependent oxidation
[2] = system: phenylephrine vasoconstriction; assay: Phenylephrine pressor response control in anesthetized mice; assay type: in vivo, mouse; conditions: phenylephrine 10 μg/kg; data not shown
[3] = Intrinsic clearance by mouse liver microsomes; assay type: in vitro ADME; conditions: for CLHEP (predicted hepatic clearance): estimated from Clint, mouse hepatic blood flow QH 90 mL/min/kg
[4] = several species; cited from earlier work
[5] = system: human thromboxane (TP) receptor; conditions: cited from earlier work
[6] = In vivo pharmacokinetics of 7 in mice; conditions: mouse, plasma, iv, 1 mg/kg
human EP1 receptor = conditions: cited from earlier work

With `CCC(C)NC(=O)c1cccc(Cc2cc(Cl)ccc2OCc2ccc(Cl)cc2F)n1` (centres unmarked) [Compound 12] the IC50 (mouse TP receptor) was over 1000 nM.
For `O=C(NS(=O)(=O)c1ccc(Cl)cc1)c1cccc(Cc2cc(Cl)ccc2OCc2ccc(Cl)cc2F)n1` [Compound 17], the Kd (mouse EP1 receptor) was 86.5 nM, the “Schild regression slope m” value (mouse EP1 receptor) was 1.20 ± 0.12 and the IC50 (mouse TP receptor) was over 1000 nM. The “Biotransformation in metabolite identification studies” value [1] was “extensive biotransformation”, the “Effect of pretreatment on phenylephrine pressor activity” value [2] was “unaffected” and the “CLHEP (predicted hepatic clearance)” value [3] was 86.6 mL/min/kg. For the same compound, the CLint scaled ([3]; mouse, liver microsomes) was 2260 mL/min/kg and the “Clint (intrinsic clearance)” value ([3]; mouse, liver microsomes) was “less stable in mouse hepatic microsomes than 7”.
With `O=C(NS(=O)(=O)c1ccc(Cl)c(Cl)c1)c1cccc(Cc2cc(Cl)ccc2OCc2ccc(Cl)cc2F)n1` [Compound 21] the IC50 (mouse TP receptor) was over 1000 nM, the “CLHEP (predicted hepatic clearance)” value [3] was 87.4 mL/min/kg and the CLint scaled ([3]; mouse, liver microsomes) was 2990 mL/min/kg.
`O=C(NC1CCC1)c1cccc(Cc2cc(Cl)ccc2OCc2ccc(Cl)cc2F)n1` [Compound 10] gave an IC50 (mouse TP receptor) of over 1000 nM.
`O=C(NS(=O)(=O)c1cc(Cl)ccc1Cl)c1cccc(Cc2cc(Cl)ccc2OCc2ccc(Cl)cc2F)n1` [Compound 18] gave an IC50 (mouse TP receptor) of over 1000 nM.
For `O=C(c1cccc(Cc2cc(Cl)ccc2OCc2ccc(Cl)cc2F)n1)N1CCCC1` [Compound 9], the “mEP1 pKD” value (mouse EP1 receptor; Schild analysis, mean ± SEM of at least two independent experiments in duplicate) was 4.80 ± 0.05 and the IC50 (mouse TP receptor) was over 1000 nM.
`CC(C)(C)NC(=O)c1cccc(Cc2cc(Cl)ccc2OCc2ccc(Cl)cc2F)n1` [Compound 13] gave an IC50 (mouse TP receptor) of over 1000 nM.
With `NC(=O)c1cccc(Cc2cc(Cl)ccc2OCc2ccc(Cl)cc2F)n1` [Compound 16] the IC50 (mouse TP receptor) was over 1000 nM.
In the case of `O=C(NC1CC2CCC1C2)c1cccc(Cc2cc(Cl)ccc2OCc2ccc(Cl)cc2F)n1` (centres unmarked) [Compound 15], the IC50 (mouse TP receptor) is reported as over 1000 nM.
In the case of `O=C(NCC1CC1)c1cccc(Cc2cc(Cl)ccc2OCc2ccc(Cl)cc2F)n1` [Compound 8], the IC50 (mouse TP receptor) is reported as over 1000 nM, the “CLHEP (predicted hepatic clearance)” value [3] is reported as 89.3 mL/min/kg and the CLint scaled ([3]; mouse, liver microsomes) is reported as 11400 mL/min/kg.
Compound `CCCS(=O)(=O)NC(=O)c1cccc(Cc2cc(Cl)ccc2OCc2ccc(Cl)cc2F)n1` [Compound 20] has an IC50 (mouse TP receptor) of over 1000 nM.
With `CCN(CC)C(=O)c1cccc(Cc2cc(Cl)ccc2OCc2ccc(Cl)cc2F)n1` [Compound 14] the IC50 (mouse TP receptor) was over 1000 nM, the “CLHEP (predicted hepatic clearance)” value [3] was 88.9 mL/min/kg and the CLint scaled ([3]; mouse, liver microsomes) was 7160 mL/min/kg.
With `O=C(O)c1cccc(Cc2cc(Cl)ccc2OCc2ccc(Cl)cc2F)n1` [Compound 7, reference compound] the Kd (mouse EP1 receptor) was 52.1 nM, the “Functional antagonism of mEP1 in vitro” value (mouse EP1 receptor; Schild analysis) was “functional antagonist of mEP1” and the “Schild regression slope m” value (mouse EP1 receptor) was 0.953 ± 0.085. For the same compound, the IC50 (mouse TP receptor) was 912 nM, the “Concentration suppressing mouse TP signaling relative to human receptor” value (mouse TP receptor; mouse TP vs human TP) was 100 fold and the “Stability in microsomes and S9 fractions” value [4] was “stable”. For the same compound, the “Interaction with the human thromboxane (TP) receptor” value [5] was “high-affinity interaction”, the half-life [6] was over 1 h and the “CLHEP (predicted hepatic clearance)” value [3] was 43.6 mL/min/kg. For the same compound, the CLint scaled ([3]; mouse, liver microsomes) was 84.7 mL/min/kg and the “Affinity for the human EP1 receptor” value (human EP1 receptor) was “good affinity”.
For `CC(C)CNC(=O)c1cccc(Cc2cc(Cl)ccc2OCc2ccc(Cl)cc2F)n1` [Compound 11], the IC50 (mouse TP receptor) was over 1000 nM, the “Biotransformation in metabolite identification studies” value [1] was “extensive biotransformation” and the “CLHEP (predicted hepatic clearance)” value [3] was 89.2 mL/min/kg. For the same compound, the CLint scaled ([3]; mouse, liver microsomes) was 9810 mL/min/kg.
For `Cc1ccc(S(=O)(=O)NC(=O)c2cccc(Cc3cc(Cl)ccc3OCc3ccc(Cl)cc3F)n2)cc1` [Compound 19], the IC50 (mouse TP receptor) was over 1000 nM, the “CLHEP (predicted hepatic clearance)” value [3] was 88.4 mL/min/kg and the CLint scaled ([3]; mouse, liver microsomes) was 5040 mL/min/kg.
